# Reference: PMC2965769 (PLoS Pathogens, 2010)
# pIC50: −log10 of the molar value. *: point of attachment. X2 = CC(C)CCC[C@@H](C)[C@H]1CC[C@H]2[C@@H]3CC=C4C[C@@H](OC(=O)CCOCCOCCOCCOCCNC(=O)C*)CC[C@]4(C)[C@H]3CC[C@]12C; X1 = CC(C)CCC[C@@H](C)[C@H]1CC[C@H]2[C@@H]3CC=C4C[C@@H](OC(=O)C*)CC[C@]4(C)[C@H]3CC[C@]12C
# Tested on: NiV G/F pseudotyped viruses
# Conditions: 24 h
row,Substance,pIC50
1,Ac-VALDPIDISIVLNKAKSDLEESKEWIRRSNQKLDSIGSGSGC(X2)-NH2 (N-terminus and C-terminus assumed) [V-PEG4-chol],~10.70
2,Ac-VALDPIDISIVLNKAKSDLEESKEWIRRSNQKLDSIGSGSGC(X1)-NH2 (N-terminus and C-terminus assumed) [V-chol],~10.70
